This note sets out measurements from patent US20250017940A1, “SELECTIVE PEPTIDOMIMETIC MODULATORS OF CAV2.2 (N-TYPE) VOLTAGE-GATED CALCIUM CHANNELS AND USES THEREOF” (New York University, priority 2023, published 2025).

Experiment [1] has as its system Cav3 (T-type) calcium channels. The experiment can be described thus: Whole-cell patch-clamp, isolated T-type Ca2+ currents in DRG neurons. Format: cell-based, rat. As for the experimental part: (§1) Recordings were obtained from acutely dissociated DRG neurons as described earlier (Bellampalli et al., 2019). Patch-clamp recordings were performed at room temperature (22-24° C.). Currents were recorded using an EPC 10 Amplifier-HEKA (HEKA Elektronik, Ludwigshafen, Germany) linked to a computer with Patchmaster software. DRG neurons were incubated overnight (˜16-24 hours) with 20 μM of CBD3063.
(§2) For total calcium current (ICa^2+) recordings, the external solution consisted of the following (in mM): 110 N-methyl-D-glucamine, 10 BaCl2, 30 TEA-Cl, 10 HEPES, 10 glucose, and 0.001 TTX (pH 7.29 adjusted with TEA-OH, and mOsm/L=310). Patch pipettes were filled with an internal solution containing (in mM): 150 CsCl2, 10 HEPES, 5 Mg-ATP, and 5 BAPTA, (pH 7.2 adjusted with CsOH, and mOsm/L-305). Peak Ca^2+ current was acquired by applying 200-millisecond voltage steps from −70 to +60 mV in 10-mV increments from a holding potential of −90 mV to obtain the current-voltage (I-V) relation. To measure the different subtypes of Ca^2+ channels, DRGs were treated with a Cav inhibitor cocktail omitting the inhibitor specific to the subtype being tested (e.g., to measure Cav2.2 currents, ω-conotoxin GVIA is omitted): Nifedipine (10 μM, L-type), ω-Conotoxin-GVIA (500 nM, […]) (Feng, et al., 2001), SNX482 (200 nM, R-type) (Newcomb et al., 1998), ω-agatoxin (200 nM, P/Q-type) (Mintz et al., 1992), TTA-P2 (1 μM, T-type) (Choe et al., 2011).
(§3) Normalization of currents to each cell's capacitance (pF) was performed to allow for collection of current density data. For I-V curves, functions were fitted to data using a non-linear least squares analysis. I-V curves were fitted using double Boltzmann functions:
(§4) where x is the pre-pulse potential, V1/2 is the mid-point potential, and k is the corresponding slope factor for single Boltzmann functions. Double Boltzmann fits were used to describe the shape of the curve, not to imply the existence of separate channel populations. Numbers 1 and 2 simply indicate first and second mid-points; a along with g are fitting parameters.
(§5) Activation curves were obtained from the I-V curves by dividing the peak current at each depolarizing step by the driving force according to the equation: G=I/(Vmem-Erev), where I is the peak current, Vmem is the membrane potential and Erev is the reversal potential. The conductance (G) was normalized against the maximum conductance (Gmax). For total and the different subtypes of Ca^2+ currents, steady-state inactivation (SSI) curves were obtained by applying an H-infinity protocol that consisted of 1.5-seconds conditioning pre-pulses from −100 to +30 mV in 10-mV increments followed by a 20-millisecond test pulse to +10 mV. For Na^+ currents, SSI curves were obtained by applying an H-infinity protocol that consisted of 1-second conditioning pre-pulses from −120 to +10 mV in 10-mV increments followed by a 200-millisecond test pulse to +10 mV. Inactivation curves were obtained by dividing the peak current recorded at the test pulse by the maximum current (Imax). Activation and SSI curves were fitted with the Boltzmann equation.
(In general: In patch-clamp work, channel activity is measured electrically.)

Experiment [2] addresses T1, Cav2.1 (P/Q-type) calcium channels (Rattus norvegicus, UniProt P54282).
T1 construct: Recordings were obtained from acutely dissociated DRG neurons; endogenous in cells; host or cells: acutely dissociated rat DRG neurons
The experiment can be described thus: Whole-cell patch-clamp, isolated P/Q-type Ca2+ currents in DRG neurons. Format: cell-based. As for the experimental part:
as §1, §2, §3, §4, §5

Experiment [3] deals with total Ca2+ currents. The experiment can be described thus: Whole-cell patch-clamp, total Ca2+ currents in small-to-medium DRG neurons. It counts as cell-based, rat. Particulars: 20 μM overnight. As for the experimental part:
as §1, §2, §3, §4, §5

For experiment [4], the system named is voltage-gated potassium channels. The experiment can be described thus: Whole-cell patch-clamp, total potassium currents in DRG neurons. Format: cell-based, rat. Particulars: 20 μM (DMSO: 420.9±54.19). On the procedure: as §1
To isolate potassium currents (IK+), DRG neurons were bathed in external solution composed of (in millimolar): 140 N-methyl-glucamine chloride, 5 KCl, 1 MgCl2, 2 CaCl2, 10 D-glucose, and 10 HEPES (pH adjusted to 7.3 with KOH and mOsm/L=313). Recording pipettes were filled with internal solution containing (in mM): 140 KCl, 2.5 MgCl2, 4 Mg-ATP, 0.3 Na-GTP, 2.5 CaCl2), 5 EGTA, and 10 HEPES (pH adjusted to 7.3 with KOH and mOsm/L=320). From a holding potential of −60 mV, IK activation was determined by applying 300-millisecond voltage steps from −80 to +60 mV in 10-mV increments.
Normalization of currents to each cell's capacitance (pF) was performed to allow for collection of current density data. For I-V curves, functions were fitted to data using a non-linear least squares analysis. I-V curves were fitted using double Boltzmann functions: […]

The mark [5] stands for this setting: 20 μM overnight, mean ± SEM (n cells).

T1 sequence (P54282 whole entry): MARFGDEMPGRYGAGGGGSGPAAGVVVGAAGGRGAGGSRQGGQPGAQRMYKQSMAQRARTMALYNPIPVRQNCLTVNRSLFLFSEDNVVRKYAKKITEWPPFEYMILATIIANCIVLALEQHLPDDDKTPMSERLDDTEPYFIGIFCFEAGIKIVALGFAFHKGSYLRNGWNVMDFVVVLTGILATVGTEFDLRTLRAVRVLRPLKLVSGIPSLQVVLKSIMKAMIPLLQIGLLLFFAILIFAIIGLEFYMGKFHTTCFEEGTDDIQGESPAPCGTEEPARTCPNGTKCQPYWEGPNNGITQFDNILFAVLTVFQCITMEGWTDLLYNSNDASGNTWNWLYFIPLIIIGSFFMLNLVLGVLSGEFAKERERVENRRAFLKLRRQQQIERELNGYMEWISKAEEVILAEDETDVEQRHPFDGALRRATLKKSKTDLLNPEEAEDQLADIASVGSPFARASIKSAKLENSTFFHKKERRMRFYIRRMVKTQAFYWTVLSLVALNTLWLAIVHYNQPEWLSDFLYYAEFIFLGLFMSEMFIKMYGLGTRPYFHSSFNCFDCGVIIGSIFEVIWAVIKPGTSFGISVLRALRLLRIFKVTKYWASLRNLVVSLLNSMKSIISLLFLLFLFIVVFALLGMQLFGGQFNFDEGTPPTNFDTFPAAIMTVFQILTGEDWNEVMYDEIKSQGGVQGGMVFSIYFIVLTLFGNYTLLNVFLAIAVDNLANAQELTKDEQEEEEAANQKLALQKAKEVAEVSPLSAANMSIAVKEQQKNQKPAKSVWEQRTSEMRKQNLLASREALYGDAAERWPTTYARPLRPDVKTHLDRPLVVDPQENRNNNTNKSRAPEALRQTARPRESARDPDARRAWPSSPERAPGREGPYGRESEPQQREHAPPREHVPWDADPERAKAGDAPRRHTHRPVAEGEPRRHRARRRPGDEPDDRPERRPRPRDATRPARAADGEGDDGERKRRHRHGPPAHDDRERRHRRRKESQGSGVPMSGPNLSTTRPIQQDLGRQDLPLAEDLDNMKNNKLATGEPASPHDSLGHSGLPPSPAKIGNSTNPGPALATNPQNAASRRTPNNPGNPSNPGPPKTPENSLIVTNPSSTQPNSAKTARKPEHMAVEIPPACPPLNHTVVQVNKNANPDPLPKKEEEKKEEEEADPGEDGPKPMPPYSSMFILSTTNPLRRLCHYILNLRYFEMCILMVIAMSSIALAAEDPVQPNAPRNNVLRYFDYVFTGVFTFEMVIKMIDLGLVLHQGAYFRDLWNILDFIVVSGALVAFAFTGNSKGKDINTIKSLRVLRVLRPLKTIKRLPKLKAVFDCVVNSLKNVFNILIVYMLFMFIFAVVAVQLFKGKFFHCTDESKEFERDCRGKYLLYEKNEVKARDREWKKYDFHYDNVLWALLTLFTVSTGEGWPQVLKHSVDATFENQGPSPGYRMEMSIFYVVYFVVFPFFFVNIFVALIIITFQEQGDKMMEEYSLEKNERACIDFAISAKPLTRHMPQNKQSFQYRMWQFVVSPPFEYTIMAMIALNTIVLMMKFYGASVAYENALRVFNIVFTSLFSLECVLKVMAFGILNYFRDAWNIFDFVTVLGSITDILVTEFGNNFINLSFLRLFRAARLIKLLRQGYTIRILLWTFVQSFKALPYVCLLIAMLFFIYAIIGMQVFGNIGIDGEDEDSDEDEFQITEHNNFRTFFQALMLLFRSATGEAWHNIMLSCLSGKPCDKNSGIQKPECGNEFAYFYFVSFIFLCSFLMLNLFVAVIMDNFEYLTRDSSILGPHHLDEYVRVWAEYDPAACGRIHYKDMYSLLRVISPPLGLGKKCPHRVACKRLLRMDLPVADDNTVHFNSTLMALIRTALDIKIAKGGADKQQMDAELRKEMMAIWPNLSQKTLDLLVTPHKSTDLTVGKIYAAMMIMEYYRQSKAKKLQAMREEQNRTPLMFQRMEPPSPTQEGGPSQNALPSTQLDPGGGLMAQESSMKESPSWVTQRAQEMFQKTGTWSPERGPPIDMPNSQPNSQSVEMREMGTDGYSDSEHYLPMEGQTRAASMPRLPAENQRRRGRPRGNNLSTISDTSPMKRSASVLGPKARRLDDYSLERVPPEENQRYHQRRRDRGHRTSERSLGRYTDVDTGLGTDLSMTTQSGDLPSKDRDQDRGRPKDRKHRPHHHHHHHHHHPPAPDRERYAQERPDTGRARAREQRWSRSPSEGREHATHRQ
T1 sequence (P54290 25-1091 partner): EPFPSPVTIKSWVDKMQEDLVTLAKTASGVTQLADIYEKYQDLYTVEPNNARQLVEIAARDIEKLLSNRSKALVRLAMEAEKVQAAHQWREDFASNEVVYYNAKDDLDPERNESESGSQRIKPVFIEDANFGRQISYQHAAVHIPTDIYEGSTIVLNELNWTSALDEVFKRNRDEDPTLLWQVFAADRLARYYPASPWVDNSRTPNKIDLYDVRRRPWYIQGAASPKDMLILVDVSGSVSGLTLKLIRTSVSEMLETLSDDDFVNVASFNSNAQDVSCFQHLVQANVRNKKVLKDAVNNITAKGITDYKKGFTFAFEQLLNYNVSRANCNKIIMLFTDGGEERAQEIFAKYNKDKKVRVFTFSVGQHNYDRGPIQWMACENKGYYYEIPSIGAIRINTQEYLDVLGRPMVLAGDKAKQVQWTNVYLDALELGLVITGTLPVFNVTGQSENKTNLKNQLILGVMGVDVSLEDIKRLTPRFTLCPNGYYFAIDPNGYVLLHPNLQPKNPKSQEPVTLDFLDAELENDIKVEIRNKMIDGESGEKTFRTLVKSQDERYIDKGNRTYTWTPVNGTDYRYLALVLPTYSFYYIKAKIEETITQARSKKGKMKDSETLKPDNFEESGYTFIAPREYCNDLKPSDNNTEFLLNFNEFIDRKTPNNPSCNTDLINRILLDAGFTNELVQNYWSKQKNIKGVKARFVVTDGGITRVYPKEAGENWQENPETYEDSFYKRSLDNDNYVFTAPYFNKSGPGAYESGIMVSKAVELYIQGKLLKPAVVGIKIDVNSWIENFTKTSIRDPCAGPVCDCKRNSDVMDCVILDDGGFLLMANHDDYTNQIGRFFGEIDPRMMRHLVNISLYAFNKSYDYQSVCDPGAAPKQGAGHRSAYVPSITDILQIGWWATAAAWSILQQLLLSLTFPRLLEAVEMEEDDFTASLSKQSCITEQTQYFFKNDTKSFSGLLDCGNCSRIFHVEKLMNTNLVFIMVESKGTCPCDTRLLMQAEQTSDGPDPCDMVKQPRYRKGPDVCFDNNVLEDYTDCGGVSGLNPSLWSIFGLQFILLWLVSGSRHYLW
T1 sequence (P54287 whole entry partner): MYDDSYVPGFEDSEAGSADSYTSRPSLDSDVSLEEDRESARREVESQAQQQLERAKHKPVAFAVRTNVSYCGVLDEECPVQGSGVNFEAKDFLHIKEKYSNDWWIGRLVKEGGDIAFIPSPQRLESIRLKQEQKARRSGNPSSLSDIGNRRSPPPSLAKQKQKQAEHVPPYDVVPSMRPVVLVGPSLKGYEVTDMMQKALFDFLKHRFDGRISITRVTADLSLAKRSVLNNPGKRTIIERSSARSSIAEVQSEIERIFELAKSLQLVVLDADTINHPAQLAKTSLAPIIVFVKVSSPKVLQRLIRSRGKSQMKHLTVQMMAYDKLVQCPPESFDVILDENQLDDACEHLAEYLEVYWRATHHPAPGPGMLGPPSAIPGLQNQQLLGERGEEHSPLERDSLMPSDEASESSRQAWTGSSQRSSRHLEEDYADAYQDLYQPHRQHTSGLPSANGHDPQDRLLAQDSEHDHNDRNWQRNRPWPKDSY

For the molecule `CC(=O)N[C@@H]1CCCN(C(=O)NCCCNc2ccccn2)C1` [CBD3063, (3R)-3-acetamido-N-[3-(pyridin-2-ylamino)propyl]piperidine-1-carboxamide], the “effect on Ca2+ influx through Cav3 (T-type) channels (current density-voltage curve, peak current density)” value in experiment [1] (20 μM overnight vs 0.1% DMSO) is “does not alter”. Further, in experiment [1] (setting [5]), the “T-type Ca2+ currents, activation V1/2” value was −10.982 ± 1.992 (10) mV; the “T-type Ca2+ currents, activation k (slope factor)” value is 9.924 ± 1.628 (10); the “T-type Ca2+ currents, inactivation V1/2” value is on record as −35.122 ± 2.752 (10) mV; the “T-type Ca2+ currents, inactivation k (slope factor)” value is given as −12.929 ± 2.490 (10). Besides, in experiment [2] (20 μM overnight vs 0.1% DMSO), the “effect on Ca2+ influx through Cav2.1 (P/Q-type) channels (current density-voltage curve, peak current density)” value is on record as “does not alter”. Also, in experiment [2] (setting [5]), the “P/Q-type Ca2+ currents, activation V1/2” value was −3.265 ± 0.824 (7) mV; the “P/Q-type Ca2+ currents, activation k (slope factor)” value was 4.186 ± 0.663 (7); the “P/Q-type Ca2+ currents, inactivation V1/2” value is on record as −18.667 ± 1.688 (7) mV; the “P/Q-type Ca2+ currents, inactivation k (slope factor)” value is recorded as −9.396 ± 1.470 (7). In addition, the “peak total calcium current density” value in experiment [3] (+10 mV (DMSO: −93.23±10.40)) is given as −49.84±6.17 pA/pF. In addition, the “reduction in Ca2+ currents at peak current density” value in experiment [3] (+10 mV, vs 0.1% DMSO) is about 46.54%. In addition, in experiment [3] (mean ± SEM (n cells)), the “Total Ca2+ currents, activation V1/2” value is 0.971 ± 2.338 (16) mV; the “Total Ca2+ currents, activation k (slope factor)” value is given as 11.004 ± 2.181 (16); the “Total Ca2+ currents, inactivation V1/2” value is −20.944 ± 3.182 (16) mV; the “Total Ca2+ currents, inactivation k (slope factor)” value is listed as −14.132 ± 2.880 (16). In addition, in experiment [3] (normalized to 0.1% DMSO control (1.00±0.06)), the “normalized peak total ICa2+ density” value is given as 0.51±0.04 ratio to DMSO control. The “peak potassium current density” value in experiment [4] was 422.1±52.70 pA/pF.
